Data taken from patent publication US10144742B2 (Millennium Pharmaceuticals, Inc., priority 2014, dated 2018).
Read-outs that look alike come from different tables or passages of the source.

Columns and labels:
[1] = target: hNAMPT protein (Homo sapiens (Human), UniProt P43490); test: NAMPT enzyme assay (TR-FRET/HTRF, BodiPY ligand, anti 6His-Tb); format: binding; conditions: for IC50: read-out: IC50; for inhibition at 1 µM: read-out: Percent Inhibition
Procedure, shortened: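 TR-FRET binding assay in which His-tagged human NAMPT with anti-6His-Tb is displaced by compound from a BodiPY ligand, incubated 1 h at rt in the dark. Excitation was at 320 nm, with the 520/486 nm emission ratio read. IC50 was fitted from inhibition relative to DMSO controls.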

[2] = tested on: PC3 cells; test: PC3 growth inhibition (Cell-titer glo, 72 hours); format: cell-based; conditions: for inhibition at 1 µM / inhibition at 1.667 µM: Homo sapiens, read-out: Percent Inhibition (PC3 growth inhibition)
Procedure, shortened: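 PC3 cells in RPMI1640 seeded overnight at 37 °C, 5% CO2, then exposed to compound diluted in AIM serum-free medium for 72 h. Viability by CellTiter-Glo luminescence vs DMSO controls; single-concentration % remaining viability (1 μM or 1.667 μM), or GI50/LD50 from curves.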

[3] = PC-3, compound concentration 1 μM, PC3 cells, 72 hours, Cell-titer glo
[4] = NAMPT inhibition at compound concentration 1 μM
[5] = NAMPT inhibition, IC50 range class
[6] = PC-3, compound concentration 1.667 μM, PC3 cells, 72 hours, Cell-titer glo

Sequence of hNAMPT protein (P43490 whole entry): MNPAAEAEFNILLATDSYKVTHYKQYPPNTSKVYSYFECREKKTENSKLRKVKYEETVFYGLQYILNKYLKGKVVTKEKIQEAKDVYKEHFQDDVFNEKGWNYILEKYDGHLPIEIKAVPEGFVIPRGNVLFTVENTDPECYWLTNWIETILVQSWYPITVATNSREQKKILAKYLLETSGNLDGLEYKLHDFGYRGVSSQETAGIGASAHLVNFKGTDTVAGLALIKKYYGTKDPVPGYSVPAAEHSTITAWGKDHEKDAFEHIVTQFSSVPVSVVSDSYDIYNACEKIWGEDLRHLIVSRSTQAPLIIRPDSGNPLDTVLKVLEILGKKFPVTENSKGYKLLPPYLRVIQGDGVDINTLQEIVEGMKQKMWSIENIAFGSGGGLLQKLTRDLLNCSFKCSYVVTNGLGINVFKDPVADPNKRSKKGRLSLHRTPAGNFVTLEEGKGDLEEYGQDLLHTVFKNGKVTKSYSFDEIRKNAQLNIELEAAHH

`CCOC(=O)CCc1ccc(-c2nc3cc(C(=O)NCCCn4ccnc4)ccc3nc2-c2ccccc2)cc1` [Compound I-171, ethyl 3-[4-(7-{[3-(1H-imidazol-1-yl)propyl]carbamoyl}-3-phenylquinoxalin-2-yl)phenyl]propanoate] showed an IC50 ([1]; NAMPT IC50 range class) of 2000 to 10000 nM, an inhibition at 1 µM ([1]; compound concentration 1 μM) of 27% and an inhibition at 1 µM [2, 3] of 95%.

In the case of `O=C(NCCCc1ncc[nH]1)c1ccc2nc(OCC3CCOCC3)c(-c3ccc(F)cc3)nc2c1` [Compound I-406, 3-(4-fluorophenyl)-N-[3-(1H-imidazol-2-yl)propyl]-2-(tetrahydro-2H-pyran-4-ylmethoxy)quinoxaline-6-carboxamide], the inhibition at 1 µM [1, 4] is reported as over 99%, the IC50 [1, 5] is reported as under 100 nM and the inhibition at 1.667 µM [2, 6] is reported as 2%.

In the case of `COc1cc(-c2nc3cc(C(=O)NCCCc4ncc[nH]4)ccc3nc2OC(C)C)ccc1F` [Compound I-344, 3-(4-fluoro-3-methoxyphenyl)-N-[3-(1H-imidazol-2-yl)propyl]-2-isopropoxyquinoxaline-6-carboxamide], the IC50 ([1]; NAMPT IC50 range class) is reported as under 100 nM, the “Percent Inhibition” value ([1]; compound concentration 1 μM) is reported as over 99% and the “Percent Inhibition (PC3 growth inhibition)” value ([2]; compound concentration 1.667 μM, PC3 cells, 72 hours, Cell-titer glo) is reported as 1%.

`O=C(NCCCc1ncc[nH]1)c1ccc2nc(-c3ccc(F)cc3)c(-c3cncs3)nc2c1` [Compound I-325, 2-(4-fluorophenyl)-N-[3-(1H-imidazol-2-yl)propyl]-3-(1,3-thiazol-5-yl)quinoxaline-6-carboxamide] was tested, and the IC50 ([1]; NAMPT IC50 range class) was under 100 nM, the inhibition at 1 µM ([1]; compound concentration 1 μM) was over 99% and the inhibition at 1.667 µM [2, 6] was 4%.

`O=C(NCCCn1ccnc1)c1ccc2nc(-c3ccccc3)c(N3CCCCC3)nc2c1` [Compound I-166, N-[3-(1H-imidazol-1-yl)propyl]-2-phenyl-3-(piperidin-1-yl)quinoxaline-6-carboxamide] gave an IC50 ([1]; NAMPT IC50 range class) of 2000 to 10000 nM, an inhibition at 1 µM ([1]; compound concentration 1 μM) of 31% and an inhibition at 1 µM [2, 3] of 5%.

`N#CC1(COc2nc3ccc(C(=O)NCCCc4ncc[nH]4)cc3nc2-c2ccc(F)cc2)CCC1` [Compound I-407, 2-[(1-cyanocyclobutyl)methoxy]-3-(4-fluorophenyl)-N-[3-(1H-imidazol-2-yl)propyl]quinoxaline-6-carboxamide] showed an inhibition at 1 µM [1, 4] of over 99%, an IC50 [1, 5] of under 100 nM and an inhibition at 1.667 µM [2, 6] of 2%.

`CS(=O)(=O)N1CCN(c2nc3cc(C(=O)NCCCn4ccnc4)ccc3nc2-c2ccccc2)CC1` [Compound I-129, N-[3-(1H-imidazol-1-yl)propyl]-3-[4-(methylsulfonyl)piperazin-1-yl]-2-phenylquinoxaline-6-carboxamide] gave an IC50 ([1]; NAMPT IC50 range class) of 100 to 500 nM, an inhibition at 1 µM ([1]; compound concentration 1 μM) of 70% and an inhibition at 1 µM [2, 3] of -6%.

`CN1CCC(COc2nc3ccc(C(=O)NCCCc4ncc[nH]4)cc3nc2-c2ccc(F)cc2)CC1` [Compound I-327, 3-(4-fluorophenyl)-N-[3-(1H-imidazol-2-yl)propyl]-2-[(1-methylpiperidin-4-yl)methoxy]quinoxaline-6-carboxamide] showed an IC50 ([1]; NAMPT IC50 range class) of under 100 nM, an inhibition at 1 µM ([1]; compound concentration 1 μM) of over 99% and an inhibition at 1.667 µM [2, 6] of 2%.

`O=C(NCCCn1ccnc1)c1ccc2nc(N3CCN4CCCC4C3)c(-c3ccccc3)nc2c1` (stereo not drawn) [Compound I-146, 2-(hexahydropyrrolo[1,2-a]pyrazin-2(1H)-yl)-N-[3-(1H-imidazol-1-yl)propyl]-3-phenylquinoxaline-6-carboxamide] gave an IC50 ([1]; NAMPT IC50 range class) of 100 to 500 nM, an inhibition at 1 µM ([1]; compound concentration 1 μM) of 76% and an inhibition at 1 µM [2, 3] of -7%.

`CC(=O)Nc1ccccc1-c1nc2ccc(C(=O)NCCCn3ccnc3)cc2nc1-c1ccccc1` [Compound I-264, 2-(2-acetamidophenyl)-N-[3-(1H-imidazol-1-yl)propyl]-3-phenylquinoxaline-6-carboxamide] gave an IC50 ([1]; NAMPT IC50 range class) of 1000 to 2000 nM, an inhibition at 1 µM ([1]; compound concentration 1 μM) of 41% and an inhibition at 1 µM [2, 3] of -8%.

`Cn1cncc1CCNC(=O)c1ccc2nc(-c3ccc(F)cc3)c(-c3ccc(F)cc3)nc2c1` [Compound I-53, 2,3-bis(4-fluorophenyl)-N-[2-(1-methyl-1H-imidazol-5-yl)ethyl]quinoxaline-6-carboxamide] was tested, and the IC50 ([1]; NAMPT IC50 range class) was 100 to 500 nM, the inhibition at 1 µM ([1]; compound concentration 1 μM) was 77% and the inhibition at 1 µM [2, 3] was -6%.

`O=C(NCCCc1ncc[nH]1)c1ccc2nc(C3=CCC(O)CC3)c(-c3cccs3)nc2c1` (stereo not drawn) [Compound I-202, 2-(4-Hydroxycyclohex-1-en-1-yl)-N-[3-(1H-imidazol-2-yl)propyl]-3-(2-thienyl)quinoxaline-6-carboxamide] showed an IC50 ([1]; NAMPT IC50 range class) of under 100 nM, an inhibition at 1 µM ([1]; compound concentration 1 μM) of over 99% and an inhibition at 1.667 µM [2, 6] of 2%.

In the case of `Cn1cccc1-c1nc2cc(C(=O)NCCCn3ccnc3)ccc2nc1-c1ccccc1` [Compound I-194, N-[3-(1H-imidazol-1-yl)propyl]-3-(1-methyl-1H-pyrrol-2-yl)-2-phenylquinoxaline-6-carboxamide], the IC50 ([1]; NAMPT IC50 range class) is reported as 2000 to 10000 nM, the inhibition at 1 µM ([1]; compound concentration 1 μM) is reported as 30% and the inhibition at 1 µM [2, 3] is reported as 29%.

`O=C(NCCCn1ccnc1)c1ccc2nc(N3CCC3)c(-c3ccccc3)nc2c1` [Compound I-137, 2-(Azetidin-1-yl)-N-[3-(1H-imidazol-1-yl)propyl]-3-phenylquinoxaline-6-carboxamide] was tested, and the IC50 ([1]; NAMPT IC50 range class) was 2000 to 10000 nM, the inhibition at 1 µM [1] was 18% and the inhibition at 1 µM ([2]; PC-3, 72 h) was 6%.

Work on `CC(=O)Nc1ccc(-c2nc3cc(C(=O)NCCCn4ccnc4)ccc3nc2-c2ccccc2)cc1` [Compound I-223, 3-(4-acetamidophenyl)-N-[3-(1H-imidazol-1-yl)propyl]-2-phenylquinoxaline-6-carboxamide] yielded an IC50 ([1]; NAMPT IC50 range class) of 2000 to 10000 nM, an inhibition at 1 µM ([1]; compound concentration 1 μM) of 10% and an inhibition at 1 µM [2, 3] of 103%.

Work on `CCCOc1nc2ccc(C(=O)NCCCc3nnc[nH]3)cc2nc1-c1ccc(F)cc1` [Compound I-358, 3-(4-fluorophenyl)-2-propoxy-N-[3-(4H-1,2,4-triazol-3-yl)propyl]quinoxaline-6-carboxamide] yielded an IC50 ([1]; NAMPT IC50 range class) of 100 to 500 nM, an inhibition at 1 µM ([1]; compound concentration 1 μM) of 78% and an inhibition at 1.667 µM [2, 6] of 3%.

`Cn1cc(COc2nc3ccc(C(=O)NCCCc4ncc[nH]4)cc3nc2-c2ccc(F)cc2)cn1` [Compound I-332, 3-(4-fluorophenyl)-N-[3-(1H-imidazol-2-yl)propyl]-2-[(1-methyl-1H-pyrazol-4-yl)methoxy]quinoxaline-6-carboxamide] showed an IC50 ([1]; NAMPT IC50 range class) of under 100 nM, an inhibition at 1 µM ([1]; compound concentration 1 μM) of over 99% and an inhibition at 1.667 µM [2, 6] of 34%.

For `O=C(NCCn1nnnc1S)c1ccc2nc(-c3ccc(F)cc3)c(-c3ccc(F)cc3)nc2c1` [Compound I-139, 2,3-bis(4-fluorophenyl)-N-[2-(5-sulfanyl-1H-tetrazol-1-yl)ethyl]quinoxaline-6-carboxamide], the IC50 ([1]; NAMPT IC50 range class) was 1000 to 2000 nM, the inhibition at 1 µM ([1]; compound concentration 1 μM) was 41% and the inhibition at 1 µM [2, 3] was 99%.

`Cc1nccn1CCNC(=O)c1ccc2nc(-c3ccc(F)cc3)c(-c3ccc(F)cc3)nc2c1` [Compound I-26, 2,3-bis(4-fluorophenyl)-N-[2-(2-methyl-1H-imidazol-1-yl)ethyl]quinoxaline-6-carboxamide] showed an IC50 ([1]; NAMPT IC50 range class) of 1000 to 2000 nM, an inhibition at 1 µM ([1]; compound concentration 1 μM) of 37% and an inhibition at 1 µM [2, 3] of 99%.

With `O=C(NCCCc1ncc[nH]1)c1ccc2nc(OCC3CCOC3)c(-c3ccc(F)cc3)nc2c1` (stereo not drawn) [Compound I-379, 3-(4-fluorophenyl)-N-[3-(1H-imidazol-2-yl)propyl]-2-(tetrahydrofuran-3-ylmethoxy)quinoxaline-6-carboxamide] the IC50 ([1]; NAMPT IC50 range class) was under 100 nM, the inhibition at 1 µM ([1]; compound concentration 1 μM) was 100% and the inhibition at 1.667 µM [2, 6] was 2%.

Compound `O=C(NCCCc1ncc[nH]1)c1ccc2nc(OCCc3cn[nH]c3)c(-c3ccc(F)cc3)nc2c1` [Compound I-442, 3-(4-fluorophenyl)-N-[3-(1H-imidazol-2-yl)propyl]-2-[2-(1H-pyrazol-4-yl)ethoxy]quinoxaline-6-carboxamide] has an inhibition at 1 µM [1, 4] of over 99%, an IC50 [1, 5] of under 100 nM and an inhibition at 1.667 µM [2, 6] of 3%.
